Measurements reported in PubChem BioAssay (NCI).
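Following 48 hours of exposure in 96-well plates, responses at five concentrations were used to interpolate endpoints linearly. TGI denotes the concentration required for complete inhibition of growth.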

Legend:
Test in all cases: inhibition of tumour cell growth, NCI panel, 48 h
[1] = system: TK-10 renal
[2] = system: T-47D breast
[3] = system: UACC-62 melanoma
[4] = system: MCF7 breast
[5] = system: HT29 colon
[6] = system: EKVX NSCLC
[7] = system: HL-60(TB) leukemia
[8] = system: MDA-N
[9] = system: KM12 colon
[10] = system: UO-31 renal
[11] = system: SNB-75 CNS
[12] = system: ACHN renal
[13] = system: OVCAR-3 ovarian
[14] = system: K-562 leukemia
[15] = system: SK-MEL-2 melanoma
[16] = system: U251 CNS
[17] = system: COLO 205 colon
[18] = system: LOX IMVI melanoma
[19] = system: OVCAR-5 ovarian
[20] = system: MOLT-4 leukemia
[21] = system: OVCAR-8 ovarian
[22] = system: RPMI-8226 leukemia
[23] = system: MDA-MB-435
[24] = system: SF-295 CNS
[25] = system: IGROV1 ovarian
[26] = system: SR leukemia
[27] = system: NCI-H522 lung
[28] = system: 786-0 renal
[29] = system: MDA-MB-231 breast
[30] = system: MALME-3M melanoma
[31] = system: NCI/ADR-RES ovarian
[32] = system: DU-145 prostate
[33] = system: SF-268 CNS
[34] = system: PC-3 prostate
[35] = system: HCC-2998 colon
[36] = system: HCT-15 colon
[37] = system: UACC-257 melanoma
[38] = system: NCI-H23 lung
[39] = system: NCI-H226 lung
[40] = system: CAKI-1 renal
[41] = system: HS 578T breast
[42] = system: SNB-19 CNS
[43] = system: SN12C renal
[44] = system: HCT-116 colon
[45] = system: NCI-H460 lung
[46] = system: SK-MEL-28 melanoma
[47] = system: BT-549 breast
[48] = system: OVCAR-4 ovarian
[49] = system: SK-MEL-5 melanoma
[50] = system: RXF 393 renal
[51] = system: A498 renal
[52] = system: SW-620 colon
[53] = system: HOP-62 NSCLC
[54] = system: CCRF-CEM leukemia
[55] = system: SK-OV-3 ovarian
[56] = system: A549 NSCLC
[57] = system: HOP-92 NSCLC
[58] = system: M14 melanoma

SMILES: Cc1cccc(-n2c(C)nc3ccc(NC(=S)Nc4ccccc4)cc3c2=O)c1
- TGI [1]: > 100 µM
- TGI [2]: > 100 µM
- TGI [3]: > 100 µM
- TGI [4]: > 100 µM
- TGI [5]: > 100 µM
- TGI [6]: > 100 µM
- TGI [7]: > 100 µM
- TGI [8]: > 100 µM
- TGI [9]: > 100 µM
- TGI [10]: > 100 µM
- TGI [11]: > 100 µM
- TGI [12]: > 100 µM
- TGI [13]: > 100 µM
- TGI [14]: > 100 µM
- TGI [15]: > 100 µM
- TGI [16]: > 100 µM
- TGI [17]: > 100 µM
- TGI [18]: > 100 µM
- TGI [19]: > 100 µM
- TGI [20]: 71.9 µM
- TGI [21]: > 100 µM
- TGI [22]: > 100 µM
- TGI [23]: > 100 µM
- TGI [24]: > 100 µM
- TGI [25]: > 100 µM
- TGI [26]: > 100 µM
- TGI [27]: > 100 µM
- TGI [28]: > 100 µM
- TGI [29]: > 100 µM
- TGI [30]: > 100 µM
- TGI [31]: > 100 µM
- TGI [32]: > 100 µM
- TGI [33]: > 100 µM
- TGI [34]: > 100 µM
- TGI [35]: 78.1 µM
- TGI [36]: > 100 µM
- TGI [37]: > 100 µM
- TGI [38]: > 100 µM
- TGI [39]: > 100 µM
- TGI [40]: > 100 µM
- TGI [41]: > 100 µM
- TGI [42]: > 100 µM
- TGI [43]: > 100 µM
- TGI [44]: > 100 µM
- TGI [45]: > 100 µM
- TGI [46]: > 100 µM
- TGI [47]: > 100 µM
- TGI [48]: > 100 µM
- TGI [49]: 57.1 µM
- TGI [50]: > 100 µM
- TGI [51]: > 100 µM
- TGI [52]: > 100 µM
- TGI [53]: > 100 µM

SMILES: COc1ccc(-c2ncnc(-c3ccc(OC)c(OC)c3)n2)cc1OC
- TGI [1]: > 100 µM
- TGI [2]: > 100 µM
- TGI [3]: > 100 µM
- TGI [4]: > 100 µM
- TGI [5]: > 100 µM
- TGI [6]: > 100 µM
- TGI [7]: > 100 µM
- TGI [8]: > 100 µM
- TGI [9]: > 100 µM
- TGI [10]: > 100 µM
- TGI [11]: > 100 µM
- TGI [12]: > 100 µM
- TGI [13]: > 100 µM
- TGI [54]: > 100 µM
- TGI [14]: > 100 µM
- TGI [15]: > 100 µM
- TGI [16]: > 100 µM
- TGI [17]: > 100 µM
- TGI [18]: > 100 µM
- TGI [19]: > 100 µM
- TGI [21]: > 100 µM
- TGI [55]: > 100 µM
- TGI [23]: > 100 µM
- TGI [24]: > 100 µM
- TGI [25]: > 100 µM
- TGI [26]: > 100 µM
- TGI [27]: > 100 µM
- TGI [28]: > 100 µM
- TGI [29]: > 100 µM
- TGI [30]: > 100 µM
- TGI [31]: > 100 µM
- TGI [32]: > 100 µM
- TGI [33]: > 100 µM
- TGI [34]: > 100 µM
- TGI [35]: > 100 µM
- TGI [37]: > 100 µM
- TGI [56]: > 100 µM
- TGI [38]: > 100 µM
- TGI [39]: > 100 µM
- TGI [40]: > 100 µM
- TGI [57]: > 100 µM
- TGI [41]: > 100 µM
- TGI [43]: > 100 µM
- TGI [44]: > 100 µM
- TGI [58]: > 100 µM
- TGI [46]: > 100 µM
- TGI [47]: > 100 µM
- TGI [49]: > 100 µM
- TGI [50]: > 100 µM
- TGI [51]: > 100 µM
- TGI [52]: > 100 µM
- TGI [53]: > 100 µM
